In US8143244B2, “Cyclopropyl fused indolobenzazepine HCV NS5B inhibitors” (Bristol-Myers Squibb Company, priority 2009, dated 2012):

What was measured:
HCV replicon genotype 1a = assay: HCV Replicon Luciferase Reporter Assay (LE Assay), genotype 1a replicon; type: cell-based, HCV genotype 1a; conditions: Hepatitis C virus, read-out: LE NeoLuc EC50
Description: The HCV replicon luciferase assay was developed to monitor the inhibitory effects of compounds described in the disclosure on HCV viral replication. Utilization of a replicon luciferase reporter assay was first described by Krieger et al (Krieger N, Lohmann V, and Bartenschlager R, J. Virol. 75(10):4614-4624 (2001)). HUH-7 cells, constitutively expressing the HCV replicon, were grown in Dulbeccors Modified Eagle Media (DMEM) (Gibco-BRL) containing 10% Fetal calf serum (FCS) (Sigma) and 1 mg/ml G418 (Gibco-BRL). Compounds were serially diluted 3 folds in DMSO for a twenty-point titration and subsequently transferred to sterile 384-well tissue-culture treated plates (Coming cat #3571). The plates were then seeded with 50 μl of cells at a density of 3.0×10^3 cells/well in DMEM containing 4% FCS (final DMSO concentration at 0.5%). After 3 days incubation at 37° C., cells were analyzed for Renilla Luciferase activity using the EnduRen as substrate (Promega cat #E6485). The EnduRen substrate was diluted in DMEM and then added to the plates to a final concentration of 7.5 μM. The plates were incubated for 2 hrs at 37° C. and then read immediately for 30 seconds with Viewlux Imager (PerkinElmer) using a luminescence program. To assess cytotoxicity of compounds, CC50 values were generated by multiplexing the EnduRen-containing plates with Cell Titer-Blue (Promega, cat #G8082). 3 μl of Cell-Titer Blue was added to each well and incubated for 8 hrs at 37° C. The fluorescence signal from each well was read, with an excitation wavelength at 525/10 nm and an emission wavelength of 598/10 nm, using the Viewlux Imager.

HCV NS5B = molecular target: T1, HCV NS5B (Hepatitis C virus genotype 1b, UniProt Q9WMX2); assay: HCV NS5B RdRp enzyme assay; type: biochemical; conditions: Table 1; HCV NS5B RdRp genotype 1b
T1 construct: The protein was expressed with an 18 amino acid C-terminal truncation to enhance the solubility; made in house; host or cells: E. coli BL21(DE3)
Description: HCV NS5B RdRp cloning, expression, and purification. The cDNA encoding the NS5B protein of HCV, genotype 1b, was cloned into the pET21a expression vector. The protein was expressed with an 18 amino acid C-terminal truncation to enhance the solubility. The E. coli competent cell line BL21(DE3) was used for expression of the protein. Cultures were grown at 37° C. for ˜4 hours until the cultures reached an optical density of 2.0 at 600 nm. The cultures were cooled to 20° C. and induced with 1 mM IPTG. Fresh ampicillin was added to a final concentration of 50 μg/ml and the cells were grown overnight at 20° C.
Cell pellets (3L) were lysed for purification to yield 15-24 mgs of purified NS5B. The lysis buffer consisted of 20 mM Tris-HCl, pH 7.4, 500 mM NaCl, 0.5% triton X-100, 1 mM DTT, 1 mM EDTA, 20% glycerol, 0.5 mg/ml lysozyme, 10 mM MgCl2, 15 ug/ml deoxyribonuclease I, and Complete TM protease inhibitor tablets (Roche). After addition of the lysis buffer, frozen cell pellets were resuspended using a tissue homogenizer. To reduce the viscosity of the sample, aliquots of the lysate were sonicated on ice using a microtip attached to a Branson sonicator. The sonicated lysate was centrifuged at 100,000×g for 1 hr at 4° C. and filtered through a 0.2 μm filter unit (Corning).
The protein was purified using three sequential chromatography steps: Heparin sepharose CL-6B, polyU sepharose 4B, and Hitrap SP sepharose (Pharmacia). The chromatography buffers were identical to the lysis buffer but contained no lysozyme, deoxyribonuclease I, MgCl2 or protease inhibitor and the NaCl concentration of the buffer was adjusted according to the requirements for charging the protein onto the column. Each column was eluted with a NaCl gradient which varied in length from 5-50 column volumes depending on the column type. After the final chromatography step, the resulting purity of the enzyme is >90% based on SDS-PAGE analysis. The enzyme was aliquoted and stored at −80° C.
Standard HCV NS5B RdRp enzyme assay. HCV RdRp genotype 1b assays were run in a final volume of 60 μl in 96 well plates (Costar 3912). The assay buffer is composed of 20 mM Hepes, pH 7.5, 2.5 mM KCl, 2.5 mM MgCl2, 1 mM DTT, 1.6 U RNAse inhibitor (Promega N2515), 0.1 mg/ml BSA (Promega R3961), and 2% glycerol. All compounds were serially diluted (3-fold) in DMSO and diluted further in water such that the final concentration of DMSO in the assay was 2%. HCV RdRp genotype 1b enzyme was used at a final concentration of 28 nM. A polyA template was used at 6 nM, and a biotinylated oligo-dT12 primer was used at 180 nM final concentration. Template was obtained commercially (Amersham 27-4110). Biotinylated primer was prepared by Sigma Genosys. 3H-UTP was used at 0.6 μCi (0.29 μM total UTP). Reactions were initiated by the addition of enzyme, incubated at 30° C. for 60 min, and stopped by adding 25 μl of 50 mM EDTA containing SPA beads (4 μg/μl, Amersham RPNQ 0007). Plates were read on a Packard Top Count NXT after >1 hr incubation at room temperature.
Modified HCV NS5B RdRp enzyme assay. A modified enzyme assay was performed essentially as described for the standard enzyme assay except for the following: The biotinylated oligo dT12 primer was precaptured on streptavidin-coated SPA beads by mixing primer and beads in assay buffer and incubating at room temperature for one hour. Unbound primer was removed after centrifugation. The primer-bound beads were resuspended in 20 mM Hepes buffer, pH 7.5 and used in the assay at final concentrations of 20 nM primer and 0.67 μg/μl beads. Order of addition in the assay: enzyme (14 nM) was added to diluted compound followed by the addition of a mixture of template (0.2 nM), 3H-UTP (0.6 μCi, 0.29 μM), and primer-bound beads, to initiate the reaction; concentrations given are final. Reactions were allowed to proceed for 4 hours at 30° C.
IC50 values for compounds were determined using seven different [I]. […]

HCV = conditions: cited from earlier work
[1] = extended dosing of the combination regimens (interferon and ribavirin); cited from earlier work

T1 sequence (Q9WMX2 2420-2992): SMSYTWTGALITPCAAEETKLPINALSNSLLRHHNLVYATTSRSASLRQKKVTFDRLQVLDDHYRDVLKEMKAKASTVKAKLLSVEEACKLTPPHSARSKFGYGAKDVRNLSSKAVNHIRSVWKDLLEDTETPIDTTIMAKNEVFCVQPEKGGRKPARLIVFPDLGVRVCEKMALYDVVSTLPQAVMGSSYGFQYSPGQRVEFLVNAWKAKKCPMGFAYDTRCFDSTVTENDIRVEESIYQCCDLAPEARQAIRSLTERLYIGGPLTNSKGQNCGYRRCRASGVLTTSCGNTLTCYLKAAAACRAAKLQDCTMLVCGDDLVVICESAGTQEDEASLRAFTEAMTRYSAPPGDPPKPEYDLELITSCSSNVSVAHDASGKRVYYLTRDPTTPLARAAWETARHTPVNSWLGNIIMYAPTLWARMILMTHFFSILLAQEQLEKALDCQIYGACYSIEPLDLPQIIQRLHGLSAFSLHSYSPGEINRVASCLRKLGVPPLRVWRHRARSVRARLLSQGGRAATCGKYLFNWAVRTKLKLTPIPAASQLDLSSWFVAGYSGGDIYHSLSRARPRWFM

Molecule	EC50 (HCV replicon genotype 1a) [nM]	IC50 (HCV NS5B) [nM]	HCV RNA levels in patients (HCV; single agent: transient decrease then rebound, more robust drop combined with interferon and ribavirin)	hepatic toxicity [1]	sustained efficacy in patients (HCV; HCV therapy)
COc1ccc2c(c1)[C@@H]1C[C@]1(C(=O)N1CC34COCC3(C1)CN(S(=O)(=O)C(C)C)C4)Cn1c-2c(C2CCCCC2)c2ccc(C(=O)NS(=O)(=O)C(C)C)cc21 (stereo partly shown)	1.9 to 500	1.9 to 500	–	–	–
COc1ccc2c(c1)[C@@H]1C[C@]1(C(=O)N1CC34CCC3(CN(C(=O)N(C(C)C)C(C)C)C4)C1)Cn1c-2c(C2CCCCC2)c2ccc(C(=O)NS(=O)(=O)C(C)C)cc21 (stereo partly shown)	1.9 to 500	1.9 to 500	–	–	–
COc1ccc2c(c1)[C@@H]1C[C@]1(C(=O)N1CC34COCC3(CN(CC(F)(F)F)C4)C1)Cn1c-2c(C2CCCCC2)c2ccc(C(=O)NS(=O)(=O)C(C)C)cc21 (stereo partly shown)	1.9 to 500	1.9 to 500	–	–	–
COc1ccc2c(c1)[C@@H]1C[C@]1(C(=O)N1CC34CCC3(CN(C(=O)N(C(C)C)C(C)C)C4)C1)Cn1c-2c(C2CCCCC2)c2ccc(C(=O)NS(=O)(=O)N(C)C)cc21 (stereo partly shown)	1.9 to 500	1.9 to 500	–	–	–
COc1ccc2c(c1)[C@@H]1C[C@]1(C(=O)N1CC34CCC3(CN(C(=O)N3CCCC3)C4)C1)Cn1c-2c(C2CCCCC2)c2ccc(C(=O)NS(=O)(=O)N(C)C)cc21 (stereo partly shown)	1.9 to 500	1.9 to 500	–	–	–
COc1ccc2c(c1)[C@@H]1C[C@]1(C(=O)N1CC34CCC3(CN(C(=O)N3CCOCC3)C4)C1)Cn1c-2c(C2CCCCC2)c2ccc(C(=O)NS(=O)(=O)N(C)C)cc21 (stereo partly shown)	1.9 to 500	1.9 to 500	–	–	–
COc1ccc2c(c1)[C@@H]1C[C@]1(C(=O)N1CC34CCC3(CN(CC(F)(F)F)C4)C1)Cn1c-2c(C2CCCCC2)c2ccc(C(=O)NS(=O)(=O)C(C)C)cc21 (stereo partly shown)	1.9 to 500	1.9 to 500	–	–	–
COc1ccc2c(c1)[C@@H]1C[C@]1(C(=O)N1CC34CCC3(C1)C[N+]([O-])(CC(F)(F)F)C4)Cn1c-2c(C2CCCCC2)c2ccc(C(=O)NS(=O)(=O)N(C)C)cc21 (stereo partly shown)	1.9 to 500	< 1.7	–	–	–
CNC(=O)c1c(-c2ccc(F)cc2)oc2cc(N(CCO)S(C)(=O)=O)c(C3CC3)cc12 [HCV-796]	–	–	showed an ability to reduce HCV RNA levels in patients	hepatic toxicity observed	–
alpha-interferon and ribavirin	–	–	–	–	40 % of patients
